Test results reported in patent publication US9365541B2, “Compounds for use in the treatment of parasitic diseases” (IRBM—SCIENCE PARK S.P.A., priority 2012, dated 2016).

Legend:
[1] = target: T1, human HDAC1 (Homo sapiens, UniProt Q13547); test: Homo sapiens HDAC1 inhibition assay (Fluor-de-Lys, enzymatic); type: biochemical; settings: human HDAC enzymatic assay; read-out: hHDAC IC50
T1 construct: made in house; host or cells: HeLa (ATCC CCL-2), mammalian cells
Outline: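 Product developed with trypsin developer containing 2 μM TSA to stop the reaction; fluorescence measures deacetylase activity, inversely related to inhibition.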

[2] = system: Plasmodium falciparum 3D7; test: P. falciparum growth inhibition assay (Pf-LDH); type: cell-based; settings: Plasmodium falciparum, Erythrocyte; P. falciparum 3D7 infected erythrocytes, 72 h incubation, PfLDH readout
Outline: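 P. falciparum 3D7 (chloroquine-sensitive) at 0.25% parasitemia and 2% hematocrit was incubated with compound for 72 h at 37° C under 4% CO2/3% O2/93% N2. After freeze-thaw, PfLDH activity was read at 650 nm with lactate/APAD/NBT/diaphorase mix (pH 8.0).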

T1 sequence (Q13547 whole entry): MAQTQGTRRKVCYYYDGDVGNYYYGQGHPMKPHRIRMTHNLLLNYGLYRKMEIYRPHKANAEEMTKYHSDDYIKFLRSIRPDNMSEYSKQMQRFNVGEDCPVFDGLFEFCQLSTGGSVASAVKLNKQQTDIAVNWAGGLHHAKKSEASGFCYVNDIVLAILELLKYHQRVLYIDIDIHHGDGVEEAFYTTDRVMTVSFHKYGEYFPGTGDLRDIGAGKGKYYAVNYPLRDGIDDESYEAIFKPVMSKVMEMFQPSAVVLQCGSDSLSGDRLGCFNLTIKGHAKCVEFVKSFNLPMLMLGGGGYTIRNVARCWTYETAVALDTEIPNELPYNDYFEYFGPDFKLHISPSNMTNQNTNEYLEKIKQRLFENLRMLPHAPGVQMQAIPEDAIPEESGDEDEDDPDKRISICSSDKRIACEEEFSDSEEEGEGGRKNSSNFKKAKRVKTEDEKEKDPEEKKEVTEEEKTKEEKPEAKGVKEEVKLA

| SMILES | IC50 [1] | EC50 [2] |
| --- | --- | --- |
| CNC(=O)CCCCC[C@H](NC(=O)c1cccc2nccnc12)c1ncc(-c2ccc3ccccc3c2)[nH]1 [Entry 88, (S)-N-(7-(methylamino)-1-(5-(naphthalen-2-yl)-1H-imidazol-2-yl)-7-oxo-heptyl)quinoxaline-5-carboxamide] | > 5000 nM | > 5000 nM |
| CNC(=O)CCCCC[C@H](NC(=O)Cc1cnc2ccccn12)c1ncc(-c2ccc(-n3cccn3)cc2)[nH]1 [Entry 163, (S)-7-(5-(4-(1H-pyrazol-1-yl)phenyl)-1H-imidazol-2-yl)-7-(2-(imidazo[1,2-a]pyridin-3-yl)acetamido)-N-methylheptanamide] | 1000 to 5000 nM | 1000 to 5000 nM |
| CNC(=O)CCCCC[C@H](NC(=O)Cc1c(C)[nH]c2ccc(OC)cc12)c1nnc(-c2ccc3ccccc3c2)[nH]1 [Entry 148, (S)-7-(2-(5-methoxy-2-methyl-1H-indol-3-yl)acetamido)-N-methyl-7-(5-(naphthalen-2-yl)-4H-1,2,4-triazol-3-yl)heptanamide] | < 1000 nM | < 1000 nM |
| CNC(=O)CCCCC[C@H](NC(=O)Cn1cnc2ccccc21)c1ncc(-c2ccc3ccccc3c2)[nH]1 [Entry 44, (S)-7-(2-(1H-benzo[d]imidazol-1-yl)acetamido)-N-methyl-7-(5-(naphthalen-2-yl)-1H-imidazol-2-yl)heptanamide] | < 1000 nM | 1000 to 5000 nM |
| CNC(=O)CCCCC[C@H](NC(=O)C12CC3CC(CC(C3)C1)C2)c1ncc(-c2ccc(C(F)(F)F)cc2)[nH]1 [Entry 100] | > 5000 nM | 1000 to 5000 nM |
| CNC(=O)CCCCC[C@H](NC(=O)CCc1c(C)nc2ncnn2c1C)c1ncc(-c2ccc3ccncc3c2)[nH]1 [Entry 122] | < 1000 nM | < 1000 nM |
| CNC(=O)CCCCC[C@H](NC(=O)C12CCN(CC1)CC2)c1ncc(-c2ccc3ncccc3c2)[nH]1 [Entry 152] | < 1000 nM | 1000 to 5000 nM |
| CNC(=O)CCCCC[C@H](NC(=O)CC1=CSC2=NCCCN12)c1ncc(-c2ccc3ccncc3c2)[nH]1 [Entry 155, (S)-7-(2-(6,7-dihydro-5H-thiazolo[3,2-a]pyrimidin-3-yl)acetamido)-7-(5-(isoquinolin-7-yl)-1H-imidazol-2-yl)-N-methyl-heptanamide] | 1000 to 5000 nM | 1000 to 5000 nM |
| CNC(=O)CCCCC[C@H](NC(=O)Cc1ccccc1)c1ncc(-c2ccc3ccccc3c2)[nH]1 [Entry 21] | < 1000 nM | 1000 to 5000 nM |

Further lines, results first:

| IC50 [1] | EC50 [2] | SMILES |
| --- | --- | --- |
| 1000 to 5000 nM | 1000 to 5000 nM | CNC(=O)CCCCC[C@H](NC(=O)c1cncs1)c1ncc(-c2ccc3sccc3c2)[nH]1 [Entry 161, (S)-N-(1-(5-(benzo[b]thiophen-5-yl)-1H-imidazol-2-yl)-7-(methylamino)-7-oxoheptyl)thiazole-5-carboxamide] |
| 1000 to 5000 nM | 1000 to 5000 nM | CNC(=O)CCCCC[C@H](NC(=O)OCc1ccccc1)c1ncc(-c2ccc(-c3ccn(C)n3)cc2)[nH]1 [Entry 182, (S)-benzyl(1-(5-(4-(1-methyl-1H-pyrazol-3-yl)phenyl)-1H-imidazol-2-yl)-7-(methylamino)-7-oxoheptyl)carbamate] |
| 1000 to 5000 nM | < 1000 nM | CNC(=O)CCCCC[C@H](NC(=O)c1cnn(C)c1)c1ncc(-c2ccc(-c3ccn(C)n3)cc2)[nH]1 [Entry 212, (S)-1-methyl-N-(1-(5-(4-(1-methyl-1H-pyrazol-3-yl)phenyl)-1H-imidazol-2-yl)-7-(methylamino)-7-oxoheptyl)-1H-pyrazole-4-carboxamide] |
| 1000 to 5000 nM | 1000 to 5000 nM | CNC(=O)CCCCC[C@H](NC(=O)c1cncs1)c1ncc(-c2ccc(-c3cccs3)cc2)[nH]1 [Entry 109, (S)-N-(7-(methylamino)-7-oxo-1-(5-(4-(thiophen-2-yl)phenyl)-1H-imidazol-2-yl)heptyl)thiazole-5-carboxamide] |
| > 5000 nM | > 5000 nM | CNC(=O)CCCCC[C@H](NC(=O)c1cn2ccsc2n1)c1ncc(-c2ccc3ccccc3c2)[nH]1 [Entry 164, (S)-N-(7-(methylamino)-1-(5-(naphthalen-2-yl)-1H-imidazol-2-yl)-7-oxo-heptyl)imidazo[2,1-b]thiazole-6-carboxamide] |
| 1000 to 5000 nM | < 1000 nM | CNC(=O)CCCCC[C@H](NC(=O)c1cncs1)c1ncc(-c2ccc3ncccc3c2)[nH]1 [Entry 127, (S)-N-(7-(methylamino)-7-oxo-1-(5-(quinolin-6-yl)-1H-imidazol-2-yl)heptyl)thiazole-5-carboxamide] |
| > 5000 nM | > 5000 nM | CNC(=O)CCCCC[C@H](NC(=O)c1cncs1)c1ncc(-c2ccc3[nH]nnc3c2)[nH]1 [Entry 112, (S)-N-(1-(5-(1H-benzo[d][1,2,3]triazol-5-yl)-1H-imidazol-2-yl)-7-(methylamino)-7-oxoheptyl)thiazole-5-carboxamide] |
| 1000 to 5000 nM | 1000 to 5000 nM | CNC(=O)CCCCC[C@H](NC(=O)c1cncs1)c1ncc(-c2cc3ccccc3n(C)c2=O)[nH]1 [Entry 140, (S)-N-(1-(5-(1-methyl-2-oxo-1,2-dihydroquinolin-3-yl)-1H-imidazol-2-yl)-7-(methylamino)-7-oxoheptyl)thiazole-5-carboxamide] |
| < 1000 nM | < 1000 nM | CNC(=O)CCCCC[C@H](NC(=O)c1cncs1)c1ncc(-c2cc3ccccc3cc2OC)[nH]1 [Entry 97, (S)-N-(1-(5-(3-methoxynaphthalen-2-yl)-1H-imidazol-2-yl)-7-(methylamino)-7-oxoheptyl)thiazole-5-carboxamide] |
| 1000 to 5000 nM | 1000 to 5000 nM | CNC(=O)CCCCC[C@H](NC(=O)Cc1csc2nccn12)c1ncc(-c2ccc(-c3ccn(C)n3)cc2)[nH]1 [Entry 146, (S)-7-(2-(imidazo[2,1-b]thiazol-3-yl)acetamido)-N-methyl-7-(5-(4-(1-methyl-1H-pyrazol-3-yl)phenyl)-1H-imidazol-2-yl)heptanamide] |
| 1000 to 5000 nM | 1000 to 5000 nM | CNC(=O)CCCCC[C@H](NC(=O)c1cc(C(C)(C)C)nn1C)c1ncc(-c2ccc(-c3ccn(C)n3)cc2)[nH]1 [Entry 217, (S)-3-(tert-butyl)-1-methyl-N-(1-(5-(4-(1-methyl-1H-pyrazol-3-yl)phenyl)-1H-imidazol-2-yl)-7-(methylamino)-7-oxoheptyl)-1H-pyrazole-5-carboxamide] |
| < 1000 nM | < 1000 nM | CNC(=O)CCCCC[C@H](NC(=O)c1cncs1)c1ncc(-c2ccc3ccncc3c2)[nH]1 [Entry 143, (S)-N-(1-(5-(isoquinolin-7-yl)-1H-imidazol-2-yl)-7-(methylamino)-7-oxoheptyl)thiazole-5-carboxamide] |
| > 5000 nM | > 5000 nM | CNC(=O)CCCCC[C@H](NC(=O)Cn1cncn1)c1ncc(-c2ccc(-n3cccn3)cc2)[nH]1 [Entry 11, (S)-7-(2-(1H-1,2,4-triazol-1-yl)acetamido)-7-(5-(4-(1H-pyrazol-1-yl)phenyl)-1H-imidazol-2-yl)-N-methylheptanamide] |
| 1000 to 5000 nM | > 5000 nM | CNC(=O)CCCCC[C@H](NC(=O)c1cncs1)c1ncc(-c2ccc(C#N)cc2)[nH]1 [Entry 52, (S)-N-(1-(5-(4-cyanophenyl)-1H-imidazol-2-yl)-7-(methylamino)-7-oxoheptyl)thiazole-5-carboxamide] |
